{
  "source": "paper PMC9341091",
  "about": "“Design, synthesis, and molecular docking studies of diphenylquinoxaline-6-carbohydrazide hybrids as potent α-glucosidase inhibitors” (BMC Chemistry, 2022)",
  "key": {"[1]": {"target": "α-glucosidase from Saccharomyces cerevisiae (Saccharomyces cerevisiae, UniProt P53341)", "sequence (P53341 whole entry)": "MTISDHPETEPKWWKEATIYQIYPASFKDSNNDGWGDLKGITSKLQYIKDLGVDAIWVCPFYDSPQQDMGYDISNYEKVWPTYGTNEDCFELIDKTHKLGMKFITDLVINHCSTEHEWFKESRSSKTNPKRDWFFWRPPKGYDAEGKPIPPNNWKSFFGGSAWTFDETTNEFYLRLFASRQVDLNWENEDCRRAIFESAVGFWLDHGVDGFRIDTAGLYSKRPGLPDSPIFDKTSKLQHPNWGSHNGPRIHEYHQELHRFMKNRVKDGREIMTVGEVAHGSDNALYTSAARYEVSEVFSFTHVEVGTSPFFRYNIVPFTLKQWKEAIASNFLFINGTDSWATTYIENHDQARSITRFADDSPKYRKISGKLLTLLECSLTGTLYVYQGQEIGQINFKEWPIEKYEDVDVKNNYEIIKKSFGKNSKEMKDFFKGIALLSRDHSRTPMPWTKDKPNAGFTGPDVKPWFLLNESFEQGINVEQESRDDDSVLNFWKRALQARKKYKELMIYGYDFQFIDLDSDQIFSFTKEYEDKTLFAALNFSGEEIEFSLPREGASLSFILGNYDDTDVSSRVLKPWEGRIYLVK", "experiment": "biochemical", "method": "The α-glucosidase inhibitory effects of diphenylquinoxaline-6-carbohydrazide hybrids 7a–o were determined by previously reported method. […] Later on, 25 μL of the substrate (p-nitrophenyl glucopyranoside, 4 mM) was added to each well of the plate, and incubation was continued for 20 min at 37 ^◦C."}, "α-glucosidase [2]": {"target": "α-glucosidase (Saccharomyces cerevisiae, UniProt P53341)", "sequence (P53341 whole entry)": "as above", "experiment": "Enzyme kinetic studies (Lineweaver–Burk plot, secondary plot)", "type": "biochemical", "method": "A Lineweaver–Burk plot was generated to identify the type of inhibition and the Michaelis–Menten constant (Km) value was determined from the plot between reciprocal of the substrate concentration (1/[S]) and reciprocal of enzyme rate (1/V) over various inhibitor concentrations. The experimental inhibitor constant (Ki) value was constructed by secondary plots of the inhibitor concentration [I] versus Km."}, "α-glucosidase [3]": {"target": "α-glucosidase", "design": "method as in doi:10.1039/C9NJ02580D", "settings": "compound A versus standard acarbose; cited from earlier work"}, "α-glucosidase [4]": {"target": "α-glucosidase", "design": "method as in PMID 24398385", "settings": "cited from earlier work"}},
  "note": "Where two headings read alike, the source gives them in different places.",
  "data": [
    {"compound": "O=C(NN=Cc1ccccc1)c1ccc2nc(-c3ccccc3)c(-c3ccccc3)nc2c1", "note": "[7a, N'-benzylidene-2,3-diphenylquinoxaline-6-carbohydrazide]", "values": [
      {"measurement": "IC50", "setting": "[1]", "value": "155 ± 3", "unit": "µM"},
      {"measurement": "melting point", "value": "230 to 232", "unit": "°C"}
    ]},
    {"compound": "O=C(NN=Cc1ccccc1[N+](=O)[O-])c1ccc2nc(-c3ccccc3)c(-c3ccccc3)nc2c1", "note": "[7b, N'-(2-nitrobenzylidene)-2,3-diphenylquinoxaline-6-carbohydrazide]", "values": [
      {"measurement": "IC50", "setting": "[1]", "value": "175 ± 5.9", "unit": "µM"},
      {"measurement": "melting point", "value": "> 250", "unit": "°C"}
    ]},
    {"compound": "O=C(NN=Cc1cccc([N+](=O)[O-])c1)c1ccc2nc(-c3ccccc3)c(-c3ccccc3)nc2c1", "note": "[7c, N'-(3-nitrobenzylidene)-2,3-diphenylquinoxaline-6-carbohydrazide]", "values": [
      {"measurement": "IC50", "setting": "[1]", "value": "279 ± 5.8", "unit": "µM"},
      {"measurement": "melting point", "value": "> 250", "unit": "°C"}
    ]},
    {"compound": "O=C(NN=Cc1ccc([N+](=O)[O-])cc1)c1ccc2nc(-c3ccccc3)c(-c3ccccc3)nc2c1", "note": "[7d, N'-(4-nitrobenzylidene)-2,3-diphenylquinoxaline-6-carbohydrazide]", "values": [
      {"measurement": "IC50", "setting": "[1]", "value": "240 ± 7.5", "unit": "µM"},
      {"measurement": "melting point", "value": "> 250", "unit": "°C"}
    ]},
    {"compound": "O=C(NN=Cc1cccc(F)c1)c1ccc2nc(-c3ccccc3)c(-c3ccccc3)nc2c1", "note": "[7e, N'-(3-fluorobenzylidene)-2,3-diphenylquinoxaline-6-carbohydrazide]", "values": [
      {"measurement": "IC50", "setting": "[1]; in vitro α-glucosidase inhibition, substrate p-nitrophenyl glucopyranoside, mean ± SEM, at least three experiments, read-out: IC50", "value": "111 ± 6", "unit": "µM"},
      {"measurement": "type of inhibition", "setting": "α-glucosidase [2]; Lineweaver–Burk plot, Km increased, Vmax unchanged", "value": "competitive"},
      {"measurement": "Ki", "setting": "α-glucosidase [2]; secondary plot of Km versus inhibitor concentration (0, 30, 70 and 110 µM), read-out: inhibition constant Ki", "value": 107, "unit": "µM"},
      {"measurement": "melting point", "value": "> 250", "unit": "°C"}
    ]},
    {"compound": "O=C(NN=Cc1ccc(Cl)cc1)c1ccc2nc(-c3ccccc3)c(-c3ccccc3)nc2c1", "note": "[7f, N'-(4-chlorobenzylidene)-2,3-diphenylquinoxaline-6-carbohydrazide]", "values": [
      {"measurement": "IC50", "setting": "[1]", "value": "260 ± 4.5", "unit": "µM"},
      {"measurement": "melting point", "value": "234 to 238", "unit": "°C"}
    ]},
    {"compound": "COc1ccc(C=NNC(=O)c2ccc3nc(-c4ccccc4)c(-c4ccccc4)nc3c2)cc1", "note": "[7g, N'-(4-methoxybenzylidene)-2,3-diphenylquinoxaline-6-carbohydrazide]", "values": [
      {"measurement": "IC50", "setting": "[1]", "value": "320 ± 4.9", "unit": "µM"},
      {"measurement": "melting point", "value": "> 250", "unit": "°C"}
    ]},
    {"compound": "COc1cccc(C=NNC(=O)c2ccc3nc(-c4ccccc4)c(-c4ccccc4)nc3c2)c1[N+](=O)[O-]", "note": "[7h, N'-(3-methoxy-2-nitrobenzylidene)-2,3-diphenylquinoxaline-6-carbohydrazide]", "values": [
      {"measurement": "IC50", "setting": "[1]", "value": "305 ± 7.2", "unit": "µM"},
      {"measurement": "melting point", "value": "> 250", "unit": "°C"}
    ]},
    {"compound": "O=C(NN=Cc1cc([N+](=O)[O-])ccc1Cl)c1ccc2nc(-c3ccccc3)c(-c3ccccc3)nc2c1", "note": "[7i, N'-(2-chloro-5-nitrobenzylidene)-2,3-diphenylquinoxaline-6-carbohydrazide]", "values": [
      {"measurement": "IC50", "setting": "[1]", "value": "231 ± 5.5", "unit": "µM"},
      {"measurement": "melting point", "value": "> 250", "unit": "°C"}
    ]},
    {"compound": "COc1cc(C=NNC(=O)c2ccc3nc(-c4ccccc4)c(-c4ccccc4)nc3c2)ccc1O", "note": "[7j, N'-(4-hydroxy-3-methoxybenzylidene)-2,3-diphenylquinoxaline-6-carbohydrazide]", "values": [
      {"measurement": "IC50", "setting": "[1]", "value": "358 ± 6.1", "unit": "µM"},
      {"measurement": "melting point", "value": "> 250", "unit": "°C"}
    ]},
    {"compound": "COc1cc(/C=N/NC(=O)c2ccc3nc(-c4ccccc4)c(-c4ccccc4)nc3c2)cc(OC)c1OC", "note": "[7k, (E)-2,3-diphenyl-N'-(3,4,5-trimethoxybenzylidene)quinoxaline-6-carbohydrazide]", "values": [
      {"measurement": "IC50", "setting": "[1]", "value": "> 750", "unit": "µM"}
    ]},
    {"compound": "O=C(NN=Cc1cccc(Oc2ccccc2)c1)c1ccc2nc(-c3ccccc3)c(-c3ccccc3)nc2c1", "note": "[7l, N'-(3-phenoxybenzylidene)-2,3-diphenylquinoxaline-6-carbohydrazide]", "values": [
      {"measurement": "IC50", "setting": "[1]", "value": "453 ± 4.7", "unit": "µM"},
      {"measurement": "melting point", "value": "> 250", "unit": "°C"}
    ]},
    {"compound": "O=C(NN=Cc1cc2c(cc1[N+](=O)[O-])OCO2)c1ccc2nc(-c3ccccc3)c(-c3ccccc3)nc2c1", "note": "[7m, N'-((6-nitrobenzo[d][1,3]dioxol-5-yl)methylene)-2,3-diphenylquinoxaline-6-carbohydrazide]", "values": [
      {"measurement": "IC50", "setting": "[1]", "value": "353.7 ± 3.5", "unit": "µM"},
      {"measurement": "melting point", "value": "> 250", "unit": "°C"}
    ]},
    {"compound": "O=C(NN=Cc1cccc2ccccc12)c1ccc2nc(-c3ccccc3)c(-c3ccccc3)nc2c1", "note": "[7n, N'-(naphthalen-1-ylmethylene)-2,3-diphenylquinoxaline-6-carbohydrazide]", "values": [
      {"measurement": "IC50", "setting": "[1]", "value": "388 ± 6.5", "unit": "µM"},
      {"measurement": "melting point", "value": "> 250", "unit": "°C"}
    ]},
    {"compound": "O=C(NN=Cc1cccs1)c1ccc2nc(-c3ccccc3)c(-c3ccccc3)nc2c1", "note": "[7o, 2,3-diphenyl-N'-(thiophen-2-ylmethylene)quinoxaline-6-carbohydrazide]", "values": [
      {"measurement": "IC50", "setting": "[1]", "value": "145 ± 5", "unit": "µM"},
      {"measurement": "melting point", "value": "242 to 246", "unit": "°C"}
    ]},
    {"compound": "Cc1nc2ccccc2n(CC(=O)N/N=C/c2ccc(OCCc3cn(CN4CCOCC4)nn3)cc2)c1=O", "note": "[compound A]", "values": [
      {"measurement": "IC50", "setting": "α-glucosidase [3]", "value": 21.92, "unit": "µg/mL"}
    ]},
    {"compound": "O=C(N/N=C1/c2ccccc2-c2nc3ccccc3nc21)c1ccc(Br)cc1", "note": "[compound B]", "values": [
      {"measurement": "IC50", "setting": "α-glucosidase [4]; compound B versus standard acarbose", "value": "22.67 ± 0.1", "unit": "µM"}
    ]},
    {"compound": "Cc1ccc(NC(=O)Cn2c(=O)c(C)nc3ccccc32)c([N+](=O)[O-])c1", "note": "[compound C]", "values": [
      {"measurement": "IC50", "setting": "α-glucosidase [4]; compound C versus standard acarbose", "value": "83.8 ± 0.89", "unit": "µM"}
    ]}
  ]
}
